Assay results taken from patent US5298521A, “1,5-diphenyl-3-pyrazolylalkyl-N-hydroxydithiocaramates, compositions and use” (Ortho Pharmaceutical Corporation, priority 1993, dated 1994).
Where two headings read alike, the source gives them in different places.

Tests used:
CO = assay: Ex vivo eicosanoid synthesis in dog whole blood, CO (prostaglandin F2α or TxB2) (Procedure IV); details: Canis lupus familiaris, oral, read-out: PROC. IV % INHIB/HOURS CO; for inhibition at 5 mg/kg: 5 MPK
Description: (§1) Ex Vivo eicosanoid synthesis in dog whole blood. Adult beagle or mongrel dogs (10-15 kg) of either sex were fasted overnight prior to the initiation of each experiment. The forelimb was clipped and swabbed with an alcohol prep (70% isopropanol). Blood was drawn by venipuncture into syringes containing lithium heparin (Starstead, Newton NC) immediately prior to administration of compound or vehicle and then at various intervals following dosing. The test compound was administered orally as a suspension in 0.5% methocel. At various times after dosing, blood samples were drawn and placed on an electric rocker platform to assure complete and continuous mixing. White blood cell (wbc) counts were performed using a Sysmex hematology analyzer. This was done in an effort to normalize the number of leukocytes to be stimulated with calcium ionophore. A 1.0 mL aliquot of whole blood was challenged with 50 μL of a 2.6×10^-5 M solution of calcium ionophore A23187 (Calbiochem, La Jolla, CA) prepared in DMSO and diluted in HBSS. After a 15 minute incubation at 37° C., the reaction was stopped by placing the samples in an ice bath (4° C.) for 5 minutes and then centrifuged at 11,000×g for 5 minutes to separate the plasma fraction from blood cells. The plasma fraction was removed, diluted in an appropriate buffer, and analyzed for the presence of LTB4 and prostaglandin F2α or TxB2 by standard RIA techniques. […]

5-LO = assay: Ex vivo eicosanoid synthesis in dog whole blood, 5-LO (LTB4) (Procedure IV); details: Canis lupus familiaris, oral, read-out: PROC. IV % INHIB/HOURS 5-LO; for inhibition at 5 mg/kg: 5 MPK, 6 hours
Description: as §1

| Structure (SMILES) | inhibition at 1 mg/kg (CO; 1 MPK, 2 hours) [%] | inhibition at 1 mg/kg (5-LO; 1 MPK, 2 hours) [%] | inhibition at 5 mg/kg (CO; 24 hours) [%] | inhibition at 5 mg/kg (5-LO) [%] | inhibition at 5 mg/kg (CO; 6 hours) [%] |
| --- | --- | --- | --- | --- | --- |
| COc1ccc(-n2nc(CSC(=S)N(O)C(C)C)cc2-c2ccc(Cl)cc2)cc1 [1-B] | 77 | 36 |  |  |  |
| COc1ccc(-n2nc(CSC(=S)N(O)C(C)C)c(Cl)c2-c2ccc(Cl)cc2)cc1 [1-D] |  |  | 32 | 2 |  |
| COc1ccc(-n2nc(CSC(=S)N(O)C(C)C)c(Br)c2-c2ccc(Cl)cc2)cc1 [1-E] |  |  |  | 41 | 31 |
